The conditions of data set [1]: in vivo; cited from earlier work.
The conditions of data set [2]: capsules with granulate formulation, surfactants, cyclodextrin, Avicel PH 101 and Primojel (U.S. Pat. No. 5,646,131, example 4); cited from earlier work.
For data set [3] the following is noted: cited from earlier work.
Data set [4] can be described thus: Drug dissolution test of extruded granules or pellets, paddles at 100 rpm, demineralized water, room temperature. Type of data set: physicochemical. As to conditions: paddles 100 rpm. The protocol: The extruded granules were collected, sieved and further analysed for drug dissolution (data shown in FIGS. 1 and 2, formulations B and D). The dissolution test was performed at room temperature by using paddles rotating at 100 rpm, the dissolution medium being demineralized water.

With `CS(=O)(=O)c1ccc([C@@H](O)[C@@H](CF)NC(=O)C(Cl)Cl)cc1` [florfenicol, D-(threo)-1-p-methylsulfonyl phenyl-2-dichloroacetamido-3-fluoro-l-propanol], the oral bioavailability result in data set [1] was “good oral bioavailability”.
`CC(C)(C)c1ccc(C(O)CCCN2CCC(C(O)(c3ccccc3)c3ccccc3)CC2)cc1` (stereo not drawn) [terfenadine]: the “drug release within 45 minutes” value in data set [2] is given as 90%. Further, the water-solubility entry in data set [3] is reported as “less than 0.01 mg/ml”.
Turning to `COc1cc(Cc2cnc(N)nc2N)cc(OC)c1OC` [trimethoprim, 2,4-diamino-5-(3,4,5-trimethoxy-benzyl)pyrimidine], the “drug release after 30 minutes” value in data set [4] was found to be 38%.
For `CC/C(=C(/CC)c1ccc(O)cc1)c1ccc(O)cc1` [diethylstilbestrol], the “solubility in water (in words)” value in data set [3] is on record as “virtually insoluble in water”.
Turning to `Cn1c(=O)c2[nH]cnc2n(C)c1=O` [theophylline], the water-solubility in data set [3] is 8000 µg/mL.

Values taken from US8349366B2, “Immediate release pharmaceutical granule compositions and a continuous process for making them” (Universiteit Gent, priority 2002, dated 2013).
